In ChEMBL document CHEMBL5634161, “Discovery of benzamide-based PI3K/HDAC dual inhibitors with marked pro-apoptosis activity in lymphoma cells” (Eur J Med Chem, 2023):
Activity calls are given as the source filed them. The calls are words filed in the database; no cut-off is given here.

Legend:
CYP2C19 = CYP2C19 (Homo sapiens, UniProt P33261); test: Inhibition of CYP2C19 in human liver microsomes using S-mephenytoin as substrate at 10 uM in presence of NADPH regenerating system by LC-MS/MS analysis relative to control; format: ADME, Microsome; conditions: probe S-mephenytoin
CYP2C9 = CYP2C9 (Homo sapiens, UniProt P11712); test: Inhibition of CYP2C9 in human liver microsomes using diclofenac as substrate at 10 uM in presence of NADPH regenerating system by LC-MS/MS analysis relative to control; format: ADME, Microsome; conditions: probe diclofenac
[1] = target: Phosphatidylinositol 4,5-bisphosphate 3-kinase catalytic subunit alpha isoform (Homo sapiens, UniProt P42336); test: Inhibition of PI3Kalpha (unknown origin) using PIP2 as substrate incubated for 1 hrs in presence of ATP by ADP-Glo kinase assay
[2] = Stability in human liver microsomes assessed as half-life at […] preincubated for 5 mins followed by NADPH addition and measured upto 45 mins by LC-MS/MS analysis; format: ADME, Microsome; conditions: time < 50 min
JeKo-1 [3] = test: Upregulation of tubulin acetylation in human JeKo-1 cells at 0.25 to 1 uM incubated for 24 hrs by Western blot analysis; format: functional, cell-based; conditions: dose 0.25-1 µM
Histone deacetylase 11 = Histone deacetylase 11 (Homo sapiens, UniProt Q96DB2); test: Inhibition of HDAC11 (unknown origin) using Boc-Lys(acetyl)-AMC as substrate preincubated for 1 hrs followed by substrate addition and measured after 2 hrs by spectrophotometer based fluorometric assay
Histone deacetylase 2 = Histone deacetylase 2 (Homo sapiens, UniProt Q92769); test: Inhibition of HDAC2 (unknown origin) using Boc-Lys(acetyl)-AMC as substrate preincubated for 1 hrs followed by substrate addition and measured after 2 hrs by spectrophotometer based fluorometric assay
Histone deacetylase 8 = Histone deacetylase 8 (Homo sapiens, UniProt Q9BY41); test: Inhibition of HDAC8 (unknown origin) using Boc-Lys(acetyl)-AMC as substrate preincubated for 1 hrs followed by substrate addition and measured after 2 hrs by spectrophotometer based fluorometric assay
[4] = Stability in rat liver microsomes assessed as compound remaining at 0.5 mM preincubated for 5 mins followed by NADPH addition and measured immediately by LC-MS/MS analysis; format: ADME, Microsome; conditions: read-out: Stability
[5] = Volume of distribution at steady state in ICR mouse at 1 mg/kg, iv measured after 24 hrs by LC-MS/MS analysis; format: ADME, organism-based; conditions: in vivo
[6] = Stability in mouse liver microsomes assessed as compound remaining at […] preincubated for 5 mins followed by NADPH addition and measured after 30 mins by LC-MS/MS analysis; format: ADME, Microsome; conditions: time 35 min, read-out: Stability
[7] = target: Polyamine deacetylase HDAC10 (Homo sapiens, UniProt Q969S8); test: Inhibition of HDAC10 (unknown origin) using Boc-Lys(acetyl)-AMC as substrate preincubated for 1 hrs followed by substrate addition and measured after 2 hrs by spectrophotometer based fluorometric assay
Histone deacetylase 5 = Histone deacetylase 5 (Homo sapiens, UniProt Q9UQL6); test: Inhibition of HDAC5 (unknown origin) using Boc-Lys(acetyl)-AMC as substrate preincubated for 1 hrs followed by substrate addition and measured after 2 hrs by spectrophotometer based fluorometric assay
[8] = Cytotoxicity against human HL7702 cells incubated for 48 hrs by resazurin dye based fluorescence micro plate reader analysis; format: toxicity, cell-based; conditions: HL7702 (L02) cells
JeKo-1 [9] = test: Induction of apoptosis in human JeKo-1 cells assessed as early apoptotic cells at 0.25 uM incubated for 48 hrs by Annexin-V/FITC and PI staining based flow cytometric analysis (reference value: […]); format: functional
CYP1A2 = CYP1A2 (Homo sapiens, UniProt P05177); test: Inhibition of CYP1A2 in human liver microsomes using phenacetin as substrate at 10 uM in presence of NADPH regenerating system by LC-MS/MS analysis relative to control; format: ADME, Microsome; conditions: probe phenacetin
JeKo-1 [10] = test: Induction of apoptosis in human JeKo-1 cells assessed as late apoptotic cells at 1 uM incubated for 48 hrs by Annexin-V/FITC and PI staining based flow cytometric analysis (reference value: 3.66%); format: functional
JeKo-1 [11] = test: Potency index, ratio of CI994 IC50 to test compound IC50 for antiproliferative activity against human JeKo-1 cells incubated for 48 hrs by resazurin based fluorescence microplate reader analysis; format: functional
[12] = Stability in mouse liver microsomes assessed as compound remaining at […] preincubated for 5 mins followed by NADPH addition and measured after 5 mins by LC-MS/MS analysis; format: ADME, Microsome; conditions: time 10 min, read-out: Stability
[13] = Stability in mouse liver microsomes assessed as compound remaining at […] preincubated for 5 mins followed by NADPH addition and measured after 15 mins by LC-MS/MS analysis; format: ADME, Microsome; conditions: time 20 min, read-out: Stability
JeKo-1 [14] = test: Induction of apoptosis in human JeKo-1 cells assessed as late apoptotic cells at 0.25 uM incubated for 48 hrs by Annexin-V/FITC and PI staining based flow cytometric analysis (reference value: 3.66%); format: functional
[15] = Stability in human liver microsomes assessed as compound remaining at […] preincubated for 5 mins followed by NADPH addition and measured after 45 mins by LC-MS/MS analysis; format: ADME, Microsome; conditions: time 50 min, read-out: Stability
JeKo-1 [16] = test: Induction of apoptosis in human JeKo-1 cells assessed as late apoptotic cells at 0.5 uM incubated for 48 hrs by Annexin-V/FITC and PI staining based flow cytometric analysis (reference value: 3.66%); format: functional
Histone deacetylase 7 = Histone deacetylase 7 (Homo sapiens, UniProt Q8WUI4); test: Inhibition of HDAC7 (unknown origin) using Boc-Lys(acetyl)-AMC as substrate preincubated for 1 hrs followed by substrate addition and measured after 2 hrs by spectrophotometer based fluorometric assay
[17] = Stability in mouse liver microsomes assessed as half-life at […] preincubated for 5 mins followed by NADPH addition and measured upto 45 mins by LC-MS/MS analysis; format: ADME, Microsome; conditions: time < 50 min
JeKo-1 [18] = test: Potency index, ratio of 4-(3-(4-(4-methoxy-6-morpholino-1,3,5-triazin-2-yl)phenyl)urea)-N-(2-ethylamino)ethylbenzamide IC50 to test compound IC50 for antiproliferative activity against human JeKo-1 cells incubated for 48 hrs by resazurin based fluorescence microplate reader analysis; format: functional
[19] = Stability in human liver microsomes assessed as compound remaining at […] preincubated for 5 mins followed by NADPH addition and measured after 5 mins by LC-MS/MS analysis; format: ADME, Microsome; conditions: time 10 min, read-out: Stability
[20] = Stability in mouse liver microsomes assessed as compound remaining at […] preincubated for 5 mins followed by NADPH addition and measured after 45 mins by LC-MS/MS analysis; format: ADME, Microsome; conditions: time 50 min, read-out: Stability
[21] = Stability in human liver microsomes assessed as compound remaining at […] preincubated for 5 mins followed by NADPH addition and measured after 30 mins by LC-MS/MS analysis; format: ADME, Microsome; conditions: time 35 min, read-out: Stability
[22] = target: Phosphatidylinositol 4,5-bisphosphate 3-kinase catalytic subunit beta isoform (Homo sapiens, UniProt P42338); test: Inhibition of PI3Kbeta (unknown origin) using PIP2 as substrate incubated for 1 hrs in presence of ATP by ADP-Glo kinase assay
[23] = target: Phosphatidylinositol 4,5-bisphosphate 3-kinase catalytic subunit delta isoform (Homo sapiens, UniProt O00329); test: Inhibition of PI3Kdelta (unknown origin) using PIP2 as substrate incubated for 1 hrs in presence of ATP by ADP-Glo kinase assay

Chain of Histone deacetylase 5 (Q9UQL6 whole entry): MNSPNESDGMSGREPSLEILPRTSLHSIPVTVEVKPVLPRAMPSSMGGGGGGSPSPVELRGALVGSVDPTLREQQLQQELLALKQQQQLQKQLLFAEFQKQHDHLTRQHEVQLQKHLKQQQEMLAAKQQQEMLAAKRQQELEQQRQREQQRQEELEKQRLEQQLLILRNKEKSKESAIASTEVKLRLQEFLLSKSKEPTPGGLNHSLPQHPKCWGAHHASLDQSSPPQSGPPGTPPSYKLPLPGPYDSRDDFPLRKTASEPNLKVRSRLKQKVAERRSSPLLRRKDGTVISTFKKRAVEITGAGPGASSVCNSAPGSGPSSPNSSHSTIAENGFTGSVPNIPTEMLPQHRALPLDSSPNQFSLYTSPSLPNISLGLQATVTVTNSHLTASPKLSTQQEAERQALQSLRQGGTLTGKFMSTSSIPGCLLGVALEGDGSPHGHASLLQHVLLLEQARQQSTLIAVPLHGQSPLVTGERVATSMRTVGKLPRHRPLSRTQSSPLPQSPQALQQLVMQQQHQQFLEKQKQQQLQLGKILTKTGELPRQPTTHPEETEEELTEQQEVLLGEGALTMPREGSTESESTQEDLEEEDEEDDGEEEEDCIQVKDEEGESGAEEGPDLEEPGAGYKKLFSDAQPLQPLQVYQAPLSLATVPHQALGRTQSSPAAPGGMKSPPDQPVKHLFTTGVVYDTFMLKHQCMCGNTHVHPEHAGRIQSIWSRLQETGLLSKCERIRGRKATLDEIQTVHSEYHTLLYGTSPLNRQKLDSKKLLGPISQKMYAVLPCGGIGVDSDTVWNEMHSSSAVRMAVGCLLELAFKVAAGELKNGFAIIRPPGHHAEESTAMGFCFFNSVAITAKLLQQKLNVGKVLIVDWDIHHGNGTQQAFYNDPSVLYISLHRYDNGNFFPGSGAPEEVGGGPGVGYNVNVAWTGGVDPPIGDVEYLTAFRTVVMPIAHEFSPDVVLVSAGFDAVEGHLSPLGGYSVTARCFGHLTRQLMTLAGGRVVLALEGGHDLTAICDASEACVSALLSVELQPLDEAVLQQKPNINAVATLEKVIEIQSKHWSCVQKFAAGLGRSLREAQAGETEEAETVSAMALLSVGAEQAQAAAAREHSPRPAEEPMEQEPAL
Chain of Histone deacetylase 8 (Q9BY41 whole entry): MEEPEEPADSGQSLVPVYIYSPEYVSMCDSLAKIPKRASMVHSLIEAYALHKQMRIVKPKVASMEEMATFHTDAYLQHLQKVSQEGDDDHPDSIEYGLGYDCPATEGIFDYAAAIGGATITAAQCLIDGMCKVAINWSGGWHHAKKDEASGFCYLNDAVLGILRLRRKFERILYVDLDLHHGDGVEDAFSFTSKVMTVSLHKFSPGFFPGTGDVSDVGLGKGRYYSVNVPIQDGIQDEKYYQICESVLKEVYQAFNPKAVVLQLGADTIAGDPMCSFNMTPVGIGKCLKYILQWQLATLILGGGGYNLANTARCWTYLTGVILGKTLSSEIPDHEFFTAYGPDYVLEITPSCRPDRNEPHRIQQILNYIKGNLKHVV
Chain of Phosphatidylinositol 4,5-bisphosphate 3-kinase catalytic subunit beta isoform (P42338 whole entry, canonical isoform): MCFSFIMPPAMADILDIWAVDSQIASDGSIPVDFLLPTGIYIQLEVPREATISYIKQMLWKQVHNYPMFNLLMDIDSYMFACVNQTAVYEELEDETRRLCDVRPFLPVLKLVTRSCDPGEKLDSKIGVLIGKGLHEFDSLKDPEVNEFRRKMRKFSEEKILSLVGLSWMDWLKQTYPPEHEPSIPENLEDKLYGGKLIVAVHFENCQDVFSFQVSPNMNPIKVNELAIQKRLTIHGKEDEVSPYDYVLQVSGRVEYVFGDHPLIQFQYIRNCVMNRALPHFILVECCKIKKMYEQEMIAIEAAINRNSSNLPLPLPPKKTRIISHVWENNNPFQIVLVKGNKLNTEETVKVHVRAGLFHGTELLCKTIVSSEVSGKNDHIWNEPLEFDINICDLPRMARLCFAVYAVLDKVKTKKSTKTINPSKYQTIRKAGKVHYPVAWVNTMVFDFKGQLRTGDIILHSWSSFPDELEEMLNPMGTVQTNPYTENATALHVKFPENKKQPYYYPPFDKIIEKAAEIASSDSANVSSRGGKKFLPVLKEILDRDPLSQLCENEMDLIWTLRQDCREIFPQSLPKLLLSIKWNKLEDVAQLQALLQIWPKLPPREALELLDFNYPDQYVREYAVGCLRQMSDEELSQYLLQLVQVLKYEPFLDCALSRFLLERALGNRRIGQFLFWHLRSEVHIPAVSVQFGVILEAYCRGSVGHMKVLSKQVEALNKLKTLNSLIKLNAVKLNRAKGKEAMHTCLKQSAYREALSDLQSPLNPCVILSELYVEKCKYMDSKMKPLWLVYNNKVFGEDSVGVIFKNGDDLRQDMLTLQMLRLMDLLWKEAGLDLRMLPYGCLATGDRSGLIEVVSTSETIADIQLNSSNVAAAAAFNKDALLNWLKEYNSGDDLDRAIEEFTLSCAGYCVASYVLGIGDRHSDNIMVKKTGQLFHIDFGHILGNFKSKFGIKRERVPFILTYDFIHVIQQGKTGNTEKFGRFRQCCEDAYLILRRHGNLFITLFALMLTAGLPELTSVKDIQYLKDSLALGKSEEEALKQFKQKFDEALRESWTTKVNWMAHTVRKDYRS
Chain of Histone deacetylase 2 (Q92769 whole entry): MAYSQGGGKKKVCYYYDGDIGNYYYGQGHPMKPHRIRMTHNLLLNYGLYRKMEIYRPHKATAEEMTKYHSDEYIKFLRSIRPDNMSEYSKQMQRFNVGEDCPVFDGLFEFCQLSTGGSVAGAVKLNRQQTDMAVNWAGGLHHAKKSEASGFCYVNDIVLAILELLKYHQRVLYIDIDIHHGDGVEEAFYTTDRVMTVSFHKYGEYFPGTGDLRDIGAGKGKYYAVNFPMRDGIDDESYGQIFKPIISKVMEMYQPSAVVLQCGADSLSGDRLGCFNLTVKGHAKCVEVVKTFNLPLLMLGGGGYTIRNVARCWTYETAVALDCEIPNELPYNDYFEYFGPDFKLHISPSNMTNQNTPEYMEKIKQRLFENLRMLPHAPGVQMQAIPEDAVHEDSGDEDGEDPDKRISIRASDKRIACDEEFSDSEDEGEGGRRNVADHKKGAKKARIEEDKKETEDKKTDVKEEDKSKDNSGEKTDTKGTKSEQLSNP
Chain of Histone deacetylase 11 (Q96DB2 whole entry): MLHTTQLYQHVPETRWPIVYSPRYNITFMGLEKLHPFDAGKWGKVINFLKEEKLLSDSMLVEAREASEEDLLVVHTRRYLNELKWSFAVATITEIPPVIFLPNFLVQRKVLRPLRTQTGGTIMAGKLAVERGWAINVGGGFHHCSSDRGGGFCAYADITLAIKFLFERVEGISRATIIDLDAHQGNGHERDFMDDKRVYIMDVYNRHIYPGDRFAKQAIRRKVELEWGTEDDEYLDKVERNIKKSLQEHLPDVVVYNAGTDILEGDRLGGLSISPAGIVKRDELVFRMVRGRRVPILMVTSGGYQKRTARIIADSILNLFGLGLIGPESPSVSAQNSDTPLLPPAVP
Chain of Phosphatidylinositol 4,5-bisphosphate 3-kinase catalytic subunit alpha isoform (P42336 whole entry, canonical isoform): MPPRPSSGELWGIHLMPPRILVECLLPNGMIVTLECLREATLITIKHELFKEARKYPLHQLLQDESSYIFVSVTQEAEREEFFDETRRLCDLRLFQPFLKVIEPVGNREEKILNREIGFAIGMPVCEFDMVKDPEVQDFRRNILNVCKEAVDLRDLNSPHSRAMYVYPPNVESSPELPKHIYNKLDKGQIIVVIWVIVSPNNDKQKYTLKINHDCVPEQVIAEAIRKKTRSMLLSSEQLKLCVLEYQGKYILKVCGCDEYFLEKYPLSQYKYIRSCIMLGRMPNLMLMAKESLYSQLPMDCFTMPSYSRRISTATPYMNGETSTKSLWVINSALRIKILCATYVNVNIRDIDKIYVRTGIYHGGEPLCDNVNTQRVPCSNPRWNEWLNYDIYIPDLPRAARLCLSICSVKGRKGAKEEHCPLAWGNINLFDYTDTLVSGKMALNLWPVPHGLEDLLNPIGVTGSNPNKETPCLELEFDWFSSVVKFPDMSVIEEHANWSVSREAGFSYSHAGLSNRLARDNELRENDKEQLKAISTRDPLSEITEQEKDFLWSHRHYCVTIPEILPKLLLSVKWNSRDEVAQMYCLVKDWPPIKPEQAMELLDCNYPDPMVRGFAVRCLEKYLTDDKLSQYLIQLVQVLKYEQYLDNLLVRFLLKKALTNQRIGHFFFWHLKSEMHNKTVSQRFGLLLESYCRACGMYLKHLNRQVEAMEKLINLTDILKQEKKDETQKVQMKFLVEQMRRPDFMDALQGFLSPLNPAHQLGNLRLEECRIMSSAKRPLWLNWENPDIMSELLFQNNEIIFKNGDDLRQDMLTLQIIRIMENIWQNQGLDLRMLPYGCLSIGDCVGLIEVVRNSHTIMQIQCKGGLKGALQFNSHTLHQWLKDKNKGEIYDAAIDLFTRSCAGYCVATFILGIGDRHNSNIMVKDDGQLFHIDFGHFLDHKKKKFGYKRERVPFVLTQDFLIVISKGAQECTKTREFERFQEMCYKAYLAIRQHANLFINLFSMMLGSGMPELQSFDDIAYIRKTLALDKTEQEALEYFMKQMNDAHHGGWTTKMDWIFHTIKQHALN
Chain of CYP2C19 (P33261 whole entry): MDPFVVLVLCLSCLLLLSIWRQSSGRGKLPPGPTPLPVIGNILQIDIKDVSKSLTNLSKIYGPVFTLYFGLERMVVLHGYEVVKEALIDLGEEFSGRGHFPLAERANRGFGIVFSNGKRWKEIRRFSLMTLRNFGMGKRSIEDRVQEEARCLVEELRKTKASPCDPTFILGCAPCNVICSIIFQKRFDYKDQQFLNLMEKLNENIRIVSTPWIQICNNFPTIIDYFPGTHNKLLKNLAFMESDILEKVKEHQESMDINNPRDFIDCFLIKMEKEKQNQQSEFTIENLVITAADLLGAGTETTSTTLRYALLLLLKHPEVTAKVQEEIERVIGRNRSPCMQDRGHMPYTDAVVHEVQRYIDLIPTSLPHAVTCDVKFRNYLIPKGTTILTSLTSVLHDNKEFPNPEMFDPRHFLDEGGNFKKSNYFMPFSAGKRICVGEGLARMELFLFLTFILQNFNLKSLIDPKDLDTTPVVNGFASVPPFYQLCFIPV

COc1nc(-c2ccc(NC(=O)Nc3ccc(C(=O)NCCCCCC(=O)Nc4ccccc4N)cc3)cc2)nc(N2CCOCC2)n1
inhibition at 10 µM (CYP2C19): 14%
inhibition at 10 µM (CYP2C9): 37.4%
IC50 [1]: 20.3 nM
half-life [2]: 30.9 min
Activity (JeKo-1 [3]): inactive
IC50 (Histone deacetylase 11): > 10000 nM
IC50 (Histone deacetylase 2): 443 nM
IC50 (Histone deacetylase 8): > 10000 nM
remaining at 0 min [4]: 100%
Vdss [5]: 0.719 L/kg
remaining at 0.5 h [6]: 45%
IC50 [7]: > 10000 nM
IC50 (Histone deacetylase 5): > 10000 nM
IC50 at 48 h [8]: > 100000 nM
Activity (JeKo-1 [9]): 5.73%
inhibition at 10 µM (CYP1A2): 2.52%
Activity (JeKo-1 [10]): 70.4%
Ratio IC50 (JeKo-1 [11]): 2
remaining at 5 min [12]: 94%
remaining at 0.25 h [13]: 65.8%
Activity (JeKo-1 [14]): 15.1%
remaining at 0.75 h [15]: 35.8%
Activity (JeKo-1 [16]): 32.9%
IC50 (Histone deacetylase 7): > 10000 nM
half-life [17]: 26.9 min
Ratio IC50 (JeKo-1 [18]): 2
remaining at 5 min [19]: 83.8%
remaining at 0.75 h [20]: 32.8%
remaining at 0.5 h [21]: 46.9%
IC50 [22]: 29.5 nM
IC50 [23]: 206 nM
